Each structure is given as a SMILES string. Where only a bound is given, the exact number is not on record here.

What all share (assay type): cell-based, hepatitis C virus (genotype 1a-H77)
The subject of assay [1] is HCV replicon with a R155K mutation in a 1a-H77 background. In words: transient replicon assay, R155K mutation in 1a-H77 background. Particulars: Hepatitis C virus, read-out: EC50 in a transient replicon assay with a R155K mutation in a 1a-H77 background. How it is done: (§1) Replicon cell lines can be maintained in Dulbecco's modified Eagles medium (DMEM) containing 100 IU/ml penicillin, […] streptomycin (Invitrogen), […] G418 (Invitrogen) and 10% (v/v) fetal bovine serum (FBS). Replicon-containing cells can be seeded into 96 well plates at a density of 5000 cells per well in 100 μl DMEM containing 5% FBS. The next day, the compound can be initially diluted in dimethyl sulfoxide (DMSO) to generate a 200× stock of the inhibitor in a series of 8 half-log dilutions. The dilution series can then be diluted 100-fold in the medium containing 5% FBS. One hundred microliters of medium with the inhibitor can be added to each well of the overnight cell culture plate already containing 100 μl of DMEM with 5% FBS. In assays where the protein binding effect on inhibitor potency is assessed, the medium from the overnight cell culture plates can be replaced with 200 μl DMEM containing 40% human plasma (Innovative Research) plus 5% FBS as well as compound. The cells can be grown for 4 days in tissue culture incubators. The inhibitory effects of compounds against the replicons can be determined by measuring either the level of luciferase or HCV RNA. The luciferase assay can be conducted using a Luciferase Assay System kit (Promega) following the manufacturer's instructions. Briefly, the cell culture medium is removed and wells are washed with 200 μl of phosphate-buffered saline. To each well Passive Lysis buffer (Promega, Wis.) is added and the plates are incubated for 30 min with rocking to lyse the cells. Luciferin solution (50 μl, Promega) is added, and luciferase activity is measured with a Victor II luminometer (Perkin-Elmer). To determine HCV RNA levels, RNA extractions can be performed using the CellsDirect kit (Invitrogen), and the HCV RNA copy number can be measured using the SuperScript III Platinum One-Step qRT-PCR system (Invitrogen) and primers specific to the HCV 5′ nontranslated region. Cytotoxicity can be determined by the 3-[4,5-dimethylhiazol-2-yl]-2,5-diphenyltetrazolium bromide (MTT) colorimetric assay as follows. Replicon cells is plated in 96-well plates (4000 cells per well), the next day compound dilutions are added as in the activity assay, and the cells are grown in the presence of the inhibitors for 4 days. The MTT solution is diluted in DMEM containing 5% FBS and 60 μl of the solution is added to the cells. After 4 hrs, the cells are solubilized by the addition of 30 […]μl SDS (20% in 0.02 N HCl). The plates are incubated overnight and the optical density can be measured at 570 nm. To determine compounds' EC50 and TD50, luciferase, RNA inhibition and MTT data can be analyzed using the GraphPad Prism 4 software (equation: sigmoidal dose-response—variable slope).
(§2) The 1a-H77 replicon for transient assays further differs from the replicon in the stable cell line in that it contains NS2 through NS5B in the second cistron. The 1b-N strain replicon contains NS3 through NS5B in the second cistron, with adaptive mutations E1202G in NS3 and S2204I in NS5A. Mutagenesis can be performed using the Stratagene QuikChange XL II site-directed mutagenesis kit. Mutants' sequences can be confirmed, plasmids can be linearized with Xba I restriction enzyme and used as template for in vitro transcription reactions to make mutant replicon RNA for transient transfections. In vitro transcription can be performed with the T7 Megascript kit (Ambion).
(§3) Transient replicon transfections can be performed essentially as described by Mo et al. (Antimicrob Agents Chemother (2005) 49(10):4305-4314) with slight modifications. Fifteen micrograms of template RNA can be used to electroporate 3×10^6 cells in a 200 μl volume in a 0.2 cm cuvette. The cells used for transient transfections can be Huh7 cells obtained by curing replicon-containing cells with IFN (Mo et al., supra). Electroporation can be done with a Gene Pulser II (Bio-Rad, CA) at 480V and 25 μF, using two manual pulses. […]

Assay [2] relates to HCV replicon with a D168V mutation in a 1a-H77 background. Put plainly: transient replicon assay, D168V mutation in 1a-H77 background. Particulars: Hepatitis C virus, read-out: EC50 in a transient replicon assay with a D168V mutation in a 1a-H77 background. How it is done: as §1, §2, §3
Assay [3] concerns HCV replicon with a D168E mutation in a 1a-H77 background. Put plainly: transient replicon assay, D168E mutation in 1a-H77 background. Particulars: Hepatitis C virus, read-out: EC50 in a transient replicon assay with a D168E mutation in a 1a-H77 background. How it is done:
as §1, §2, §3

For `Cc1cc(C(=O)N[C@H]2CCCCC/C=C\[C@@H]3C[C@@]3(C(=O)NS(=O)(=O)C3CC3)NC(=O)[C@@H]3C[C@@H](Oc4nc5cc(F)cc(Br)c5nc4C)CN3C2=O)no1` [Example 98, N-((2R,6S,13aS,14aR,16aS,Z)-2-(5-bromo-7-fluoro-3-methylquinoxalin-2-yloxy)-14a-(cyclopropylsulfonylcarbamoyl)-5,16-dioxo-1,2,3,5,6,7,8,9,10,11,13a,14,14a,15,16,16a-hexadecahydrocyclopropa[e]pyrrolo[1,2-a][1,4]diazacyclopentadecin-6-yl)-5-methylisoxazole-3-carboxamide], the values for the concentration for a half-maximal effect (EC50) in assay [1], in assay [2] and in assay [3] were 1 to 10 nM, below 25 nM and 3 to 20 nM, respectively.

Consider `CC(C)(C)OC(=O)N[C@H]1CCCCC/C=C\[C@@H]2C[C@@]2(C(=O)NS(=O)(=O)C2(C)CC2)NC(=O)[C@@H]2C[C@@H](Oc3nc4cc(F)ccc4nc3C(F)(F)F)CN2C1=O` [Example 110, tert-butyl (2R,6S,13aS,14aR,16aS,Z)-2-(7-fluoro-3-(trifluoromethyl)quinoxalin-2-yloxy)-14a-(1-methylcyclopropylsulfonylcarbamoyl)-5,16-dioxo-1,2,3,5,6,7,8,9,10,11,13a,14,14a,15,16,16a-hexadecahydrocyclopropa[e]pyrrolo[1,2-a][1,4]diazacyclopentadecin-6-ylcarbamate], for which the EC50 is below 1 nM in assay [1], 25 to 50 nM in assay [2] and 3 to 20 nM in assay [3].

`CC(C)[C@@H](C(=O)N[C@H]1CCCCC/C=C\[C@@H]2C[C@@]2(C(=O)NS(=O)(=O)C2CC2)NC(=O)[C@@H]2C[C@@H](Oc3nc4ccccc4nc3C(F)(F)F)CN2C1=O)N1CCCNC1=O` [Example 19, (2R,6S,13aS,14aR,16aS,Z)—N-(cyclopropylsulfonyl)-6-((S)-3-methyl-2-(2-oxotetrahydropyrimidin-1(2H)-yl)butanamido)-5,16-dioxo-2-(3-(trifluoromethyl)quinoxalin-2-yloxy)-1,2,3,5,6,7,8,9,10,11,13a,14,14a,15,16,16a-hexadecahydrocyclopropa[e]pyrrolo[1,2-a][1,4]diazacyclopentadecine-14a-carboxamide]: the EC50 in assay [1] is above 50 nM; in assay [2] it was above 1000 nM; in assay [3], above 100 nM.

As to `Cc1ccsc1C(=O)N[C@H]1CCCCC/C=C\[C@@H]2C[C@@]2(C(=O)NS(=O)(=O)C2CC2)NC(=O)[C@@H]2C[C@@H](Oc3nc4ccccc4nc3C(F)(F)F)CN2C1=O` [Example 14], the concentration for a half-maximal effect (EC50) in assay [1] is below 1 nM; in assay [2], 25 to 50 nM; in assay [3] it was 3 to 20 nM.

In the case of `CC(C)(C)OC(=O)N[C@H]1CCCCC/C=C\[C@@H]2C[C@@]2(C(=O)NS(=O)(=O)C2(C)CC2)NC(=O)[C@@H]2C[C@@H](Oc3nc4cc(F)ccc4nc3C(C)(F)F)CN2C1=O` [Example 118, tert-butyl (2R,6S,13aS,14aR,16aS,Z)-2-(3-(1,1-difluoroethyl)-7-fluoroquinoxalin-2-yloxy)-14a-(1-methylcyclopropylsulfonylcarbamoyl)-5,16-dioxo-1,2,3,5,6,7,8,9,10,11,13a,14,14a,15,16,16a-hexadecahydrocyclopropa[e]pyrrolo[1,2-a][1,4]diazacyclopentadecin-6-ylcarbamate], the values for the half-maximal effective concentration (EC50) in assay [1], in assay [2] and in assay [3] were 1 to 10 nM, 250 to 1000 nM and above 100 nM, respectively.

On to `Cc1cc(C(=O)N[C@H]2CCCCC/C=C\[C@@H]3C[C@@]3(C(=O)NS(=O)(=O)C3(C)CC3)NC(=O)[C@@H]3C[C@@H](Oc4nc5ccccc5nc4C(F)(F)F)CN3C2=O)no1` [Example 17, 5-methyl-N-((2R,6S,13aS,14aR,16aS,Z)-14a-(1-methylcyclopropylsulfonylcarbamoyl)-5,16-dioxo-2-(3-(trifluoromethyl)quinoxalin-2-yloxy)-1,2,3,5,6,7,8,9,10,11,13a,14,14a,15,16,16a-hexadecahydrocyclopropa[e]pyrrolo[1,2-a][1,4]diazacyclopentadecin-6-yl)isoxazole-3-carboxamide], for which the EC50 in assay [1] was below 1 nM; in assay [2], 25 to 50 nM; in assay [3], 3 to 20 nM.

These data come from patent US9493506B2 (Enanta Pharmaceuticals, Inc., priority 2010, dated 2016).
